Source: patent publication US20260256756A1, “USE OF PIPERIDINE ALKENE COMPOUND IN PREPARATION OF DRUG FOR TREATING CANCER” (JIANGSU HANSOH PHARMACEUTICAL GROUP CO., LTD., priority 2023, published 2026)

Experiments:
[1] = tested on: MX-1 cells; assay: In vitro proliferation inhibition (CellTiter-Glo), MX-1; assay type: cell-based; conditions: Homo sapiens, MX1; MX-1, triple-negative breast cancer, BRCA1 mutation; 6-10 days culture
Source text: […]
(§1) Experimental data processing method: The luminescence signal value was used to calculate the inhibition rate. […]

[2] = tested on: human colorectal cancer cell line DLD-1 BRCA2−/− xenograft tumor; assay: Subcutaneous xenograft tumor model of human colorectal cancer cell line DLD-1 BRCA2−/−; assay type: in vivo, BALB/c nude mice; conditions: DLD-1 BRCA2 deletion
Source text: • 1. Experimental objective: To evaluate the in vivo efficacy of compound 1 in a subcutaneous xenograft tumor model of human colorectal cancer cell line DLD-1 BRCA2^−/− in nude mice. • 2. Reagent • RPMI-1640 medium (22400-089, Gibco), fetal bovine serum (FBS) (10099-141C, Gibco) • Phosphate buffer (PBS, 10010-023, Gibco), HPMC (D180HB4005, Shanghai Colorcon Coating Technology Ltd.) • 0.25% Trypsin-EDTA (25200-056, Gibco), Pen Strep (P/S) (15140-122, Gibco) • 3. Experimental operations and data processing • 3.1 Animals: BALB/c nude mice, 6-8 weeks old, female, purchased from the Laboratory Animal Business Department of Shanghai Institute of Planned Parenthood Research. • 3.2 Cell culture and cell suspension preparation • a. A vial of DLD-1 BRCA2^−/− cells was taken from a cell bank, the cells were thawed with RPMI-1640 medium (RPMI-1640+10% FBS), and the thawed cells were placed in a cell culture flask (with the cell type, date, the name of the culture operator, etc., being marked on the wall of the flask), which were placed in a CO2 incubator for culturing (wherein the temperature of the incubator was 37° C., and the CO2 concentration was 5%). • b. The cells were passaged every three days, and after passage, the cells were placed in the CO2 incubator to continue the culture. This process was repeated until the cell number met the requirements for in vivo efficacy. • c. The cultured cells were collected, counted using a full-automatic cell counter, and resuspended with PBS on the basis of the counting results to prepare a cell suspension (at a density of 5×10^7/mL), which was then placed in an ice box for later use. • 3.3 Cell inoculation • a. Before inoculation, the nude mice were marked with disposable universal ear tags for mice and rats. • b. At the time of inoculation, the cell suspension was mixed uniformly, 0.1-1 mL of the cell suspension was aspirated using a 1 mL syringe with air bubbles expelled, and the syringe was then placed on an ice bag for later use. • c. The nude mouse was secured with the left hand, the right dorsal area near the right shoulder (inoculation site) of the nude mouse was disinfected with a 75% alcohol cotton ball, and inoculation was initiated after 30 seconds. • d. The experimental nude mice were inoculated sequentially (0.1 mL of cell suspension per mouse). • 3.4 Tumor measurement, grouping and administration in tumor-bearing mice • a. Tumor was measured on days 10-18 after inoculation depending on the tumor growth, and the tumor size was calculated.
tumor volume (mm^3)=length (mm)×width (mm)×width (mm)/2 Tumor volume calculation: • b. According to the body weight of tumor-bearing mice and the size of the tumor, the mice were grouped by random grouping. • c. According to the grouping results, the test drug was started to be administered (administration method: oral administration; administration volume: 10 mL/kg; administration frequency: once/day; administration cycle: 28 days; vehicle: 0.5% HPMC). • d. Tumor measurement and weighing were performed twice a week after starting administration of test drugs. • e. The animals were euthanized at the end of the experiment. • f. Data processing was performed using software such as GraphPad Prism. The tumor inhibitory efficacy of the compound was evaluated by TGI (%) and ΔT/ΔC (%). ΔT/ΔC (%)=(T−T0)/(C−C0)×100, where T and C are the tumor volumes of the treatment group and the vehicle control group at the end of the experiment, respectively, and T0 and C0 are the tumor volumes of the treatment group and the vehicle control group at the beginning of the experiment, respectively. Tumor growth inhibition (TGI) (%)=100−ΔT/ΔC (%). Tumor growth inhibition (TGI) (%)=100−(T−T0)/T0×100 when tumor regression occurs • 4. Experimental results and conclusions

[3] = tested on: OVCAR-3 cells; assay: In vitro proliferation inhibition (CellTiter-Glo), OVCAR-3; assay type: cell-based; conditions: Homo sapiens; OVCAR-3, ovarian cancer; 6-10 days culture
Source text: […]
as §1

[4] = tested on: BRCA2 Knockout DLD-1 cells; assay: In vitro proliferation inhibition (CellTiter-Glo), BRCA2 Knockout DLD-1; assay type: cell-based; conditions: Homo sapiens; DLD-1, colorectal cancer, BRCA2 deletion; 6-10 days culture
Source text: […]
as §1

[5] = tested on: PSN-1 cells; assay: In vitro proliferation inhibition (CellTiter-Glo), PSN-1; assay type: cell-based; conditions: Homo sapiens, PSN1; PSN-1, pancreatic cancer, HRD-positive (low expression of MRE11A/CHEK2 protein); 6-10 days culture
Source text: […]
as §1

[6] = 0.3 mg/kg oral once/day, Day 28
[7] = 100 mg/kg oral once/day, Day 28

Question: What does the source list for `CCc1cc2ncc(CN3CCN(c4ccc(C(=O)NC)nc4)CC3)cc2[nH]c1=O` [AZD5305]?
Answer: IC50 [1]: 4.1 ± 1.6 nM; Tumor volume (Mean ± SEM) ([2]; 0.3 mg/kg oral once/day, Day 0): 154 ± 12 mm^3; T/C [2, 6]: 6.20%; TGI [2, 6]: 140.20%; Tumor volume (Mean ± SEM) [2, 6]: 92 ± 22 mm^3; IC50 [3]: 5.1 ± 1.4 nM; IC50 [4]: 2.6 ± 0.6 nM; IC50 [5]: 2.1 ± 0.5 nM

Question: How did the IC50 [1] turn out when `O=C(c1cc(Cc2n[nH]c(=O)c3ccccc23)ccc1F)N1CCN(C(=O)C2CC2)CC1` [Olaparib] was run?
Answer: The IC50 was 246 ± 104 nM.

Question: What about the “Tumor volume (Mean ± SEM)” value ([2]; 100 mg/kg oral once/day, Day 0) of the same compound?
Answer: Its value is 154 ± 13 mm^3.

Question: What about the T/C [2, 7] of the same compound?
Answer: Its T/C is 63.43%.

Question: And the TGI [2, 7]?
Answer: The TGI was 40.81%.

Question: What about the “Tumor volume (Mean ± SEM)” value [2, 7] of the same compound?
Answer: The value was 942 ± 112 mm^3.

Question: And the IC50 [3]?
Answer: The IC50 was 319 ± 47 nM.

Question: What about the IC50 [4] of the same compound?
Answer: The IC50 was 160 ± 66 nM.

Question: And the IC50 [5]?
Answer: Its IC50 is 65 ± 19 nM.
